Results: patent US8404690B2, “Piperazine-2-carboxamide derivatives” (Merck Serono SA, priority 2003, dated 2013)
pEC50, pIC50, pKi: −log10 of the molar value.

Assays:
[1] = test system: Spontaneous uterine contractions in late-term pregnant rats; assay: In vivo assay: reduction of spontaneous uterine contractions in late-term pregnant rats; set-up: species or system rat; details: i.v. route (infusion over 10 minutes), dose of 3 mg/kg/min, anesthetised late-term pregnant Sprague Dawley rats, AUC of intra-luminal uterine pressure vs basal
Excerpt: 3) In Vivo Assay: Reduction of Uterine Contractile Activity in Rats
Spontaneous Uterine Contractions in Late-Term Pregnant Rats:
Late-term pregnant (19-21 days of gestation) Sprague Dawley female rats (Charles River, Calco, Italy) weighing 350-400 g were anesthetised with urethane (1.05 g/kg, i.p.) and placed on a homeothermic operating table. The trachea was isolated and cannulated with a suitable polyethylene (PE) tubing. A midline incision at the hypogastrium level was made, one pregnant uterine horn exposed and its tubal end closed (near the ovary) by a ligature with surgical silk. […]
The spontaneous contractile response of the uterus was quantified by evaluating the area under the curve (AUC) of the changes in the intra-luminal uterine pressure over time (by Chart V4.04 for Windows software, PowerLab AD Instruments, Castle Hill, Australia). The effect of the test compound on the spontaneous uterine contraction was evaluated as the percent variation of the AUC calculated in a 10-min interval following the administration of each dose of test compound as compared to the AUC in a 10-min interval before the administration of the first dose of test compound (basal value). When possible, a dose-response curve (of peak effect) was plotted and the relative ED50 value calculated (by S-Plus 2000 v. 4.6 statistical software, Mathsoft, Inc. Seattle, Wash., USA).

[2] = target: T1, human Prostaglandin F2α receptor (hFP) (Homo sapiens, UniProt P43088); assay: In vitro functional assay 1: inhibition of Prostaglandin F2α induced IP3 synthesis in HEK/EBNA cells; type: cell-based; details: tested on human Prostaglandin F2α; 30 nM PGF2α stimulation; read-out: EC50 value, antagonism of Prostaglandin F2α-induced IP3-synthesis
T1 construct: expressed in transfected cells; host or cells: 293-EBNA cells
T1 sequence (P43088 whole entry): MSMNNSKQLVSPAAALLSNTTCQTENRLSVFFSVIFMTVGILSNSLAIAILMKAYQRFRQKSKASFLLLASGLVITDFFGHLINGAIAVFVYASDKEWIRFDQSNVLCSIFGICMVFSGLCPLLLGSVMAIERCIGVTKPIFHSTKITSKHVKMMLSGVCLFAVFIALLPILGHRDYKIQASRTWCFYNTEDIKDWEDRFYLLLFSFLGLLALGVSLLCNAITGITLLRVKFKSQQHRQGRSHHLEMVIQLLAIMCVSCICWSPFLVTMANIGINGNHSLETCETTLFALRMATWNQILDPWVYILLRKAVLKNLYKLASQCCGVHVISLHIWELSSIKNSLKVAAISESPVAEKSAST
Excerpt: 1) In Vitro Functional Assay 1: Inhibition of Prostaglandin F2α Induced IP3 (Inositol Triphosphate) Synthesis in HEK/EBNA-Cells Expressing the Prostaglandin F2α Receptor
The interaction of Prostaglandin F2α with its receptor leads to IP3 synthesis, a second messenger for Ca^2+ release from sarcoplasmatic reticulum, involved in the process triggering uterine contractions. The present assay described hereinafter can be used to show the inhibition of the Prostaglandin F2α/Prostaglandin F2α receptor mediated IP3 synthesis by test compounds of formula (I).
293-EBNA cells and pCEP4 vector were purchased from Invitrogen; Fetal Bovine Serum from Cansera; Hygromycin B from Roche Molecular Biochemicals; DMEM-F12 medium, L-Glutamine from Life Technologies Inc.; [^3H] Inositol from Perkin Elmer Life Sciences; Prostaglandin F2α (PGF2α) from Sigma, AG1-X8 chromatography columns from BioRad, 96 well black/white plates from Corning Inc. […]
In the course of the three above mentioned experiments, the reaction was stopped by addition of 1 ml of stop solution (2.4% perchloric acid) for 10 min. […] The IP3 to be quantified were eluted with 3 ml elution buffer (1M ammonium formate, 0.1 M formic acid) and radioactivity was counted on a Beckman LS6000TA scintillation counter to measure the amount of phosphorylated [^3H] inositol.

[3] = target: T2, human Prostaglandin F2α receptor (Homo sapiens, UniProt P43088); assay: In vitro competition binding assay with Scintillation Proximity Assay (SPA); set-up: Human Prostaglandin F2α receptor (full-length cDNA) was subcloned into the pCEP4 (Invitrogen) vector; expressed in transfected cells; host or cells: HEK 293 EBNA cells (membrane preparation); details: Prostaglandin F2α as radioligand, membranes of HEK 293 EBNA cells, read-out: Binding affinity for human Prostaglandin F2α receptor Ki
T2 sequence (P43088 whole entry): as above
Excerpt: In vitro competition binding assay with Scintillating Proximity Assay (SPA) (see Pharmaceutical Manufacturing International, 1992, p. 49-53 by Cook, N. D. et al)
This assay allows to determine the binding affinity of the test compounds of formula (II) for the human Prostaglandin F2α receptor
Human Prostaglandin F2α receptor (full-length cDNA) was subcloned into the pCEP4 (Invitrogen) vector and transfected together with the hygromycin resistance gene into HEK 293 EBNA cells by Calcium-phosphate co-precipitation method. Antibiotic resistant cells were grown under constant selection pressure in DMEM/F-12 medium supplemented with 2% fetal calf serum, 4 mM L-Glutamine and 8 ml/l Insulin-Transferrin-Selenium-mix (all Invitrogen) and 300 μg/ml hygromycin at 37° C. in a humidified atmosphere of 5% CO2 in air. At 48 h before harvesting, receptor expression was enhanced by adding 5 mM of Na-butyrate. Cells were washed twice with phosphate buffer saline, harvested and pelleted by centrifugation.
Cell pellet was lysed by Dounce homogenisation in 250 mM sucrose, 25 mM Tris-HCl pH 7.5, 10 mM MgCl2, 1 mM EDTA containing proteases inhibitors according to the manufacturer (Boehringer Mannheim) at 4° C. The lysate was centrifuged at 1000 g, 4° C. for 10 min and the supernatant was centrifuged at 160000 g, 4° C. for 60 min. […]
In vitro competition binding with Scintillation proximity assay (SPA) was performed in Corning NBS 96 wells plates. Briefly, 100 μl of binding buffer containing 15 to 30 μg of purified membranes, 4 mg/ml of wheat-germ agglutinin (WGA) SPA beads and 1 to 2 nM of ^3H PGF2-alpha (determined by Scatchard analysis) in 1% DMSO was incubated for 2 hours at room temperature. Non-specific binding was determined in the presence of 1 μM of non-radioactive Prostaglandin F2α. […] The radioactivity was counted on a Microbeta plate counter and the binding data were analysed using the iterative, non-linear, curve-fitting program, “Prism” (GraphPad Software, Inc).

[4] = target: T2, human Prostaglandin F2α receptor; assay: In vitro functional assay 2: inhibition of Prostaglandin F2α induced Ca2+-mobilization in HEK EBNA cells (FLIPR); type: cell-based; set-up: expressed in transfected cells; host or cells: HEK EBNA cells; details: HEK EBNA cells expressing the human Prostaglandin F2α receptor
Protocol: 2) In Vitro Functional Assay 2: Inhibition of Prostaglandin F2α Induced Ca^2+-Mobilization in HEK/EBNA-Cell Expressing the Prostaglandin F2α Receptor, as Measured by FLIPR® (Fluorimetric Imaging Plate Reader).
HEK EBNA cells were seeded at 60000 cells/well in a Poly-L-Lysine precoated black/white bottom 96 well plate. 24 hours later cells were loaded with […] Fluo-4 in DMEM-F12 without fetal calf serum for 1-2 hours at 37° C. For Prostaglandin F2α dose response or agonist activity measurement of compounds—after a wash with FLIPR buffer (10 mM Hepes, 145 mM NaCl, 5 mM KCl, 1 mM MgCl2, 10 mM glucose, pH 7.4)—cells were stimulated with increasing concentration of Prostaglandin F2α or test compounds of formulae (I), (II) and (III).
Calcium mobilisation was then measured on the FLIPR for 4 min. For IC50 determination of the molecules, increasing concentrations of test compounds were added to the cells 30 min prior to the washing step. After the wash with FLIPR buffer, increasing concentrations of test compounds were added to the cells in FLIPR buffer and calcium mobilisation was measured for 1 min. Then the cells were stimulated with a concentration of 2 times the EC50 of Prostaglandin F2α and calcium mobilisation was measured for 4 min.

| Molecule | pKi [3] | pIC50 [4] | also measured |
| --- | --- | --- | --- |
| C=CCNC(=O)c1cc(C(C)(C)C)ccc1S(=O)(=O)c1cccc2cccnc12 [[5-(tert-butyl)-2-(8-quinolylsulfonyl)phenyl]-N-prop-2-enylcarboxamide] |  |  | inhibition of uterine contractions [1]: 56.1% |
| C=CCNC(=O)[C@@H]1CN(S(=O)(=O)c2ccc(C(C)(C)C)cc2)CCN1S(=O)(=O)c1cccc2cccnc12 [Example 8, (2S)-4-[(4-tert-butylphenyl)sulfonyl]-N-Drop-2-enyl-1-(quinolin-8-ylsulfonyl)piperazine-2-carboxamide] |  |  | pEC50 [2]: 7.62 |
| C=CCNC(=O)[C@H]1CN(S(=O)(=O)c2ccc(C(C)(C)C)cc2)CCN1S(=O)(=O)c1cccc2cccnc12.Cl |  |  | melting point: 126 to 129 °C |
| (3S)-4-(3-chlorobenzoyl)-N˜1˜-(3,4-dichlorophenyl)-N˜3˜-[(1S)-2,3-dihydro-1H-inden-1-yl]piperazine-1,3-dicarboxamide [Example 21] | 6.09 | 6.31 |  |

More lines, main results first:

| pKi [3] | pIC50 [4] | Molecule | also measured |
| --- | --- | --- | --- |
| 6.90 |  | C=CCNC(=O)[C@@H]1CN(S(=O)(=O)c2ccc(C(C)(C)C)cc2)CCN1S(=O)(=O)c1cccc2cccnc12 [drawing 66, (2S)-4-[(4-tert-butylphenyl)-sulfonyl]-N-prop-2-enyl-1-(quinolin-8-yl-sulfonyl)piperazine-2-carboxamide] |  |
| 5.94 | 5.32 | CN(CC(O)c1ccccc1)C(=O)[C@H]1CN(C(=O)Nc2ccc(Oc3ccccc3)cc2)CCN1S(=O)(=O)c1ccccc1 (stereo partly drawn) [Example 16, (3R)—N˜3˜-(2-hydroxy-2-phenylethyl)-N˜3˜-methyl-N˜1˜-(4-phenoxy-phenyl)-4-(phenylsulfonyl)piperazine-1,3-dicarboxamide] |  |
